For series [1], the system named is β-lactam targets in M9510 whole-cell lysates. The series is described as follows: β-lactam competition of Mero-sCy5 labeling in whole-cell lysates. In kind it is binding, Mycobacterium abscessus subsp. massiliense. The settings on record: drug 1 mM, then Mero-sCy5 5 μM.
Series [2] has as its target Ldt4, PbpB, DacB2, and MAB_4800. The series is described as follows: β-lactam IC50, range over the four enzymes. In kind it is binding, Mycobacterium abscessus.
For series [3] the following is noted: human, in vivo; cited from earlier work.
Series [4] concerns M. abscessus subsp. abscessus (n = 1344 isolates). Set-up: method as in Hunkins et al. The note with it: ref Hunkins et al.; cited from earlier work.
Series [5] relates to β-lactam targets in Mab 19977 whole-cell lysates. The experiment in a line: β-lactam competition of Mero-sCy5 labeling in whole-cell lysates. It is filed as binding, Mycobacterium abscessus subsp. abscessus. The settings on record: Mab 19977 lysate; drug 1 mM, then Mero-sCy5 5 μM.
In series [6] the test system is M9510 (clinical strain, subsp. massiliense). Also on record: method as in not given. The settings on record: supplemented Middlebrook 7H9 broth, reported values, ref not given; cited from earlier work.
The test system is the same in series [7]. The experiment in a line: Reported MIC in supplemented Middlebrook 7H9 broth. It is filed as cell-based, Mycobacterium abscessus subsp. massiliense. The note with it: from past characterization of M9510, ref not given.
A further series concerns the target Ldt4 (Mycobacteroides abscessus, UniProt B1MKW1). The experiment in a line: β-lactam IC50 by drug treatment then Bocillin FL labeling, in-gel fluorescence. In kind it is binding, Mycobacterium abscessus.
Another series addresses PbpB (Mycobacteroides abscessus, UniProt B1MP31). Described as above. It is filed as binding.
In the next series the target is DacB2 (Mycobacteroides abscessus, UniProt B1MDJ1). The series is described as above. It is filed as binding, Mycobacterium abscessus.
Series [8] relates to M. abscessus subsp. massiliense (n = 754 isolates). Also on record: method as in Hunkins et al. The note with it: ref Hunkins et al.; cited from earlier work.
The subject of series [9] is Mab 19977 (ATCC 19977, subsp. abscessus). Also on record: method as in not given. The note with it: supplemented Middlebrook 7H9 broth, reported values, ref not given; cited from earlier work.
A further series has as its target MAB_4800 (Mycobacteroides abscessus, UniProt B1MM83). The experiment in a line: β-lactam IC50 by drug treatment then Bocillin FL labeling, in-gel fluorescence. In kind it is binding.
Another series addresses MAB_0330 (Mycobacteroides abscessus, UniProt B1MFM9). The series is described as above. In kind it is binding.

Structures are written as SMILES. Values after ≈ are worked out from the molar mass of the structure shown.

Chain of Ldt4 (B1MKW1 entry or part of it): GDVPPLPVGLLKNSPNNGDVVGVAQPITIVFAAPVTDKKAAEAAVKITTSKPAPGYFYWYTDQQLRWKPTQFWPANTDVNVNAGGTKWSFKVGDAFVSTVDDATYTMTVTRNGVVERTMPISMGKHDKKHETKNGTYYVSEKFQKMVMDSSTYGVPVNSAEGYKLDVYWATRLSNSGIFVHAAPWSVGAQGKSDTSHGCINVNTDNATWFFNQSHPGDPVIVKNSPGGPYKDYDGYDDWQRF
Chain of PbpB (B1MP31 entry or part of it): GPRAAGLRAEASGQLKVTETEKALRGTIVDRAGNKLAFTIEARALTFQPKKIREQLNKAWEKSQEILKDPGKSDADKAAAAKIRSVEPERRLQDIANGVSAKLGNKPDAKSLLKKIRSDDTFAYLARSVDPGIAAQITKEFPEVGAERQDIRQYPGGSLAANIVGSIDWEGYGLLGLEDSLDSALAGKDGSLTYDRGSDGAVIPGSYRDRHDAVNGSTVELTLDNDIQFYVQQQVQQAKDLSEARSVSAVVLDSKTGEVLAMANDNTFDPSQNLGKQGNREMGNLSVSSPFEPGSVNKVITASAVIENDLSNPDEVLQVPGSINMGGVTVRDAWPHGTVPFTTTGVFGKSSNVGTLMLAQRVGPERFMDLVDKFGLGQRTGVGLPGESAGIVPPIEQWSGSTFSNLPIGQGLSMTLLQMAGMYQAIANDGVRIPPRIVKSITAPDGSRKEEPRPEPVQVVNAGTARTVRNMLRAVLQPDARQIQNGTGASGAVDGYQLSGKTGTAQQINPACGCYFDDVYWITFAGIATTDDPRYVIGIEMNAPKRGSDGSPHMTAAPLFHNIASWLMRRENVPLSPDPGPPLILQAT
Chain of DacB2 (B1MDJ1 entry or part of it): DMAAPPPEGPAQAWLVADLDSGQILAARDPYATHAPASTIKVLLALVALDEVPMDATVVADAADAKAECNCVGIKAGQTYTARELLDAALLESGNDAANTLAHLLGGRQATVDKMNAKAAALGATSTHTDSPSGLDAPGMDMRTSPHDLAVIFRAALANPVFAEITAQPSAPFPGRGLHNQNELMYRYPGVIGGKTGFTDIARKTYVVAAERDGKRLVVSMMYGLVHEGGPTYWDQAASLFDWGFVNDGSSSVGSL
Chain of MAB_4800 (B1MM83 entry or part of it): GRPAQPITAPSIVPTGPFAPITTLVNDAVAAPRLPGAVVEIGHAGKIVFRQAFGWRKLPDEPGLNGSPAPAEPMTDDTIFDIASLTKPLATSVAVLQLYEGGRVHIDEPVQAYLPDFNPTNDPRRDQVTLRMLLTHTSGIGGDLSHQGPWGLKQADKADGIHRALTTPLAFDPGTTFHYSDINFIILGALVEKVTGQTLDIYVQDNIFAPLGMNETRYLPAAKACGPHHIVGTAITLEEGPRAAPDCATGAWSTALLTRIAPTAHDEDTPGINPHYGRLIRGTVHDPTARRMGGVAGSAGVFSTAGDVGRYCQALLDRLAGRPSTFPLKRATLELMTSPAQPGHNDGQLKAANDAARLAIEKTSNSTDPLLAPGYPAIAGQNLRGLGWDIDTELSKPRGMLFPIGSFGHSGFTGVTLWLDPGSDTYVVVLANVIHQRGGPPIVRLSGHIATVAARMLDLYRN
Chain of MAB_0330 (B1MFM9 entry or part of it): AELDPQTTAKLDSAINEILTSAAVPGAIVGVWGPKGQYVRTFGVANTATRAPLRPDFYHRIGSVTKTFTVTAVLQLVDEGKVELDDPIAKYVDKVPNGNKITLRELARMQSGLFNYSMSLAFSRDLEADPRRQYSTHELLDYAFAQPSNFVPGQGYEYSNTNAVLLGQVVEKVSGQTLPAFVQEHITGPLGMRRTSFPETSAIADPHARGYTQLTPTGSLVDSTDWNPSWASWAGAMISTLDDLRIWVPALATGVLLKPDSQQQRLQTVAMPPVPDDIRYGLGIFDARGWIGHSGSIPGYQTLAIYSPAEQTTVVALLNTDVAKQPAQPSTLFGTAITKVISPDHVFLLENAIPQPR
Protocol for MAB_0330: Adjustment of image brightness and contrast and band intensity quantification was
performed with Fiji. Statistical comparison of mean band intensities between no
treatment and drug-treated enzymes was done using one-way ANOVA with Tukey
multiple comparison test in GraphPad Prism software.
We determined the inhibitory concentration 50 (IC50) of imipenem and cefoxitin for
PbpB, Ldt4, DacB2, and MAB_4800. We measured the IC50 by drug-treatment followed
by Bocillin FL labeling using the method described by Carlson23. Purified enzyme (0.5
μM) was treated with a range of inhibitor concentrations (.01 – 5000 µM) or buffer only
(NT) in 50 mM Tris-Cl (pH 8.0 at 4 °C), 150 mM NaCl for 30 min at 37 °C. Samples
were then incubated with 10 µM Bocillin FL for 30 min at 37 °C. Reactions were
stopped by addition of 1X TCEP SDS-PAGE loading dye and heating (5 min, 75 °C).
Technical duplicates were loaded and resolved on the same gel to standardize
background. Gels were destained of free probe overnight (30% methanol, 10% acetic
acid in water) and scanned using the Cy2 laser/emission filter on an Amersham
Typhoon imager. The experiment was repeated twice for each enzyme.
Mean band intensities were measured in ImageJ by drawing a box tightly around the
band. The inhibitor concentration versus mean band intensity was plotted and fit to a […]
GraphPad Prism software. Final values were calculated by averaging the IC50 across […]

One may read the MIC90 as an inhibitory concentration at the 90% level, which refers to growth in some studies and to a panel of isolates in others. The MIC is the lowest concentration found to suppress growth. By IC50 is commonly meant the midpoint of a concentration-inhibition curve. Low values mean inhibition by little substance, high ones a need for much substance. On to `C[C@@H](O)[C@H]1C(=O)N2C(C(=O)O)=C(SCCN=CN)C[C@H]12` [IPM, imipenem], for which the “inhibition of Mero-sCy5 labeling of targets in lysate” value in series [1] and in [5] was “abolished ABP labeling” throughout. Further, the “IC50 for the four enzymes, in mass units” value in series [2] was 0.5 to 2 µg/mL. Further, in series [3], the “fCss,avg (median unbound average steady-state plasma concentration)” value was 12.2 µg/mL. In addition, the MIC90 in [4] and in series [8] was 16 µg/mL (≈ 53.4 µM) in each case. For the same compound, the MIC was 24 µg/mL (≈ 80.2 µM) in [6] and 8 µg/mL (≈ 26.7 µM) in series [9]. Besides, the “increased MIC in M9510 relative to 19977” value in series [7] is reported as 3 fold. Further, the half-inhibitory concentration (IC50) at Ldt4 (IC50 (best-fit value, example analysis Figure S8), Ldt4 with IPM, one experiment, 95% CI 1.796 to 11.10, R squared 0.8570) was determined as 5.18 µM; against Ldt4 (IC50 Ldt4, 0.5 μM enzyme, drug 30 min 37 °C, then 10 µM Bocillin FL), 4 ± 2 µM; against PbpB it was 4 ± 2 µM; on DacB2, 2 ± 1 µM; at MAB_4800 it was 7 ± 3 µM; on MAB_0330 it was 170 µM. At Ldt4 (Ldt4 with IPM, one experiment), the “HillSlope (best-fit value, example analysis Figure S8)” value is given as -1.416. Further, the “fold more potent inhibition of PbpB than FOX” value at PbpB (IC50 comparison IPM vs FOX) is on record as 3 fold.
